IC50 data for three compounds are collected here from patent US20230414616A1, “LINE-1 INHIBITORS TO TREAT DISEASE” (Transposon Therapeutics, Inc., priority 2020, published 2023).

This experiment relates to human LINE-1. In words: Human LINE-1 retrotransposition assay (HeLa cell-based dual-luciferase reporter). As to conditions: HeLa cells, reporter plasmid pYX017, 72 h incubation, Firefly/Renilla. The procedure: Representative Compounds of the Disclosure were tested for inhibition of retrotransposition activity of human LINE-1 in HeLa cells according to the following procedure.
HeLa cervical cancer cells were cultivated at 37° C. in a humidified 5% CO2 incubator in Dulbecco's Modified Eagle's Medium (DMEM)—high glucose, with 4500 mg/L glucose, L-glutamine, sodium pyruvate and sodium bicarbonate (Sigma), supplemented with 10% of heat inactivated fetal bovine serum (Thermo Fisher).
Assays were performed using reporter plasmid pYX017 as described (Xie, et al., 2011) with several modifications. The reporter assay was performed in 96-well white optical bottom plates. HeLa cells were seeded in wells 24 h prior to transfection and compound treatment so that cells were approximately 30% confluent on the day of transfection. Different cell plating densities were tested and a density of 2×10^3 cells was determined to be optimal.
Compounds were resuspended in DMSO. Serial dilutions (1:3) were prepared in DMSO. Medium containing different concentrations of the compounds were prepared by adding 2 μl of the compound dilution to 1 ml of the culture medium. The final concentration of DMSO in the medium was 0.2%.
FuGENE® HD transfection reagent (Promega, E2311, Lot 382574 and Lot 397842) was used to transfect the plasmids into the cells. […] Different ratios of transfection reagent to DNA were tested and a ratio of 3:1 was determined to be optimal. […] A 72 h incubation time was determined to be optimal.
Luciferase reporter activity was quantified with the Dual-Luciferase® Reporter Assay System (Promega) according to manufacturer's instructions for multiwell plates except that cells were lysed directly on the multiwell plate with 30 μl of the passive lysis buffer (PLB) for 20 min at room temperature, with gentle shaking to ensure complete cell lysis.
Firefly and Renilla luciferase signals were measured using a SpectraMax i3x Multi-Mode Microplate Reader. […] Relative L1 activity is calculated as Firefly/Renilla *1000 or Firefly/Renilla *10,000. […]

As a reminder, the IC50 is the midpoint of a concentration-inhibition curve. `C#C[C@]1(CO)O[C@@H](n2cc(F)c(=O)[nH]c2=O)C[C@@H]1O` [Compound 15] registered an IC50 (HeLa, 72 h) of 830 nM.

As for `CC(C)OC(=O)[C@H](C)N[P@](=O)(CO[C@H](C)Cn1cnc2c(N)ncnc21)Oc1ccccc1` [tenofovir alafenamide, reference compound], 10 nM corresponded to half-maximal inhibition (IC50). As for `CC[C@]1(CO)O[C@@H](n2cnc3c(O)nc(N)nc32)C[C@@H]1O` [Compound 27], where the note is “HeLa, 72 h”, the IC50 amounted to 2.6 nM.
